Results taken from patent US8530493B2, “Indolopyridines as Eg5 kinesin modulators” (4SC AG, priority 2006, dated 2013).

How the values were obtained:
[1] = system: RKO p27 induced (arrested) colon adenocarcinoma cells; test: Alamar Blue cell viability assay, RKO p27 induced by Ponasterone A (arrested); type: cell-based; details: Homo sapiens, RKOp27, Table B1, cells arrested by Ponasterone A-induced p27Kip1, 72 hours, read-out: −log EC50 RKO p27 induced (arrested) (converted)
Procedure: (§1) To determine the cell cycle specific mode of action, subclones of RKO colon adenocarcinoma cells (RKOp21 or RKOp27 as described by Schmidt et al. in Oncogene 19, 2423-2429; 2000) are seeded into 96 well flat bottom plates at a density of 16000 cells per well in a volume of 50 μl per well in DMEM growth medium with 10% FCS containing 10 μM Ponasterone A. 24 hours after seeding the 50 μl each of the compound dilutions in DMEM medium are added into each well of the 96-well plate. Each compound dilution is tested as triplicates. Wells containing untreated control cells are filled with 50 μl DMEM medium containing 1% DMSO. The cells are then incubated with the substances for 72 hours at 37° C. in a humidified atmosphere containing 5% carbon dioxide. To determine the viability of the cells, 10 μl of an Alamar Blue solution (Biosource) are added and the fluorescence is measured at an extinction of 544 nm and an emission of 590 nm. For the calculation of the cell viability the emission value from untreated cells is set as 100% viability and the emission rates of treated cells are set in relation to the values of untreated cells. Viabilities are expressed as % values. The Graphpad Prism program (GraphPad Software, Inc) is used for the calculation of EC50 values out of the obtained dose-response curves. Viability is compared of proliferating cells grown in the absence of the inducer Ponasterone A, versus viability of cells arrested by the expression of ectopic p27Kip1 induced by Ponasterone A.
(§2) Representative values for anti-proliferation/cytotoxicity [measured as −log EC50 (mol/l)] determined in the aforementioned assays follow from the following tables B1, B2 and B3, in which the numbers of the compounds correspond to the numbers of the examples.

[2] = system: RKO p27 uninduced (proliferating) colon adenocarcinoma cells; test: Alamar Blue cell viability assay, RKO p27 uninduced (proliferating); type: cell-based; details: Homo sapiens, RKOp27, Table B1, anti-proliferative/cytotoxic activity, 72 hours, read-out: −log EC50 RKO p27 uninduced (proliferating) (converted)
Procedure: The anti-proliferative/cytotoxic activity of the compounds described herein can be tested on subclones of RKO human colon adenocarcinoma cells (Schmidt et al., Oncogene 19, 2423-2429; 2000) using the Alamar Blue cell viability assay (described in O'Brien et al. Eur J Biochem 267, 5421-5426, 2000). The compounds are dissolved as 10 mM solutions in DMSO and subsequently diluted in semi-logarithmic steps. DMSO dilutions are further diluted 1:100 into Dulbecco's modified Eagle's medium (DMEM) containing 10% fetal calf serum to a final concentration twice as much as the final concentration in the test. RKO subclones are seeded into 96 well flat bottom plates at a density of 4000 cells per well in a volume of 50 μl per well. 24 hours after seeding the 50 μl each of the compound dilutions in DMEM medium are added into each well of the 96 well plate. Each compound dilution is tested as triplicates. Wells containing untreated control cells are filled with 50 μl DMEM medium containing 1% DMSO. The cells are then incubated with the substances for 72 hours at 37° C. in a humidified atmosphere containing 5% carbon dioxide. To determine the viability of the cells, 10 μl of an Alamar Blue solution (Biosource) are added and the fluorescence is measured at an extinction of 544 nm and an emission of 590 nm. For the calculation of the cell viability the emission value from untreated cells is set as 100% viability and the emission rates of treated cells are set in relation to the values of untreated cells. Viabilities are expressed as % values. The Graphpad Prism program is used for the calculation of EC50 values for anti-proliferative/cytotoxic activity out of the obtained dose-response curves.
as §1, §2

Row | Compound | melting point [°C] | EC50 [1] [nM] | EC50 [2] [nM]
1 | C[C@@]12Cc3c([nH]c4ccc(Cl)cc34)[C@@H](c3cccc(O)c3)N1C(=O)N(CCBr)C2=O (racemic) | 262 to 264 | – | –
2 | COc1ccc2[nH]c3c(c2c1)C[C@@]1(C)C(=O)N(CCBr)C(=O)N1[C@@H]3c1cccc(O)c1 (racemic) [Example 24, (3aSR,10RS)-2-(2-Bromo-ethyl)-10-(3-hydroxy-phenyl)-6-methoxy-3a-methyl-3a,4,9,10-tetrahydro-2,9,10a-triaza-cyclopenta[b]fluorene-1,3-dione] | 299 to 302 | ≥ 3160 | 39.8 to 251
3 | COc1ccc2[nH]c3c(c2c1)C[C@@]1(C)C(=O)N(CCN2CCOCC2)C(=O)N1[C@@H]3c1cccc(O)c1 (racemic) [Example 10, (3aSR,10RS)-10-(3-Hydroxy-phenyl)-6-methoxy-3a-methyl-2-(2-morpholin-4-yl-ethyl)-3a,4,9,10-tetrahydro-2,9,10a-triaza-cyclopenta[b]fluorene-1,3-dione] | 260 to 263 | ≥ 3160 | ≤ 39.8
4 | CN(C)CCN1C(=O)N2[C@H](c3cccc(O)c3)c3[nH]c4ccc(Br)cc4c3C[C@@]2(C)C1=O (racemic) [Example 8, (3aSR,10RS)-6-Bromo-2-(2-dimethylamino-ethyl)-10-(3-hydroxy-phenyl)-3a-methyl-3a,4,9,10-tetrahydro-2,9,10a-triaza-cyclopenta[b]fluorene-1,3-dione] | 286 to 288 | ≥ 3160 | ≤ 39.8
5 | COc1ccc2[nH]c3c(c2c1)C[C@@]1(C)C(=O)N(CCCN(C)C)C(=O)N1[C@@H]3c1cccc(O)c1 (racemic) [Example 15, (3aSR,10RS)-2-(3-Dimethylamino-propyl)-10-(3-hydroxy-phenyl)-6-methoxy-3a-methyl-3a,4,9,10-tetrahydro-2,9,10a-triaza-cyclopenta[b]fluorene-1,3-dione] | 228 to 231 | ≥ 3160 | ≤ 39.8
6 | C[C@@]12Cc3c([nH]c4ccc(OC(F)F)cc34)[C@@H](c3cccc(O)c3)N1C(=O)N(CCN1CCC1)C2=O (racemic) [Example 44, (3aSR,10RS)-2-(2-Azetidin-1-yl-ethyl)-6-(1,1-difluoro-methoxy)-10-(3-hydroxy-phenyl)-3a-methyl-3a,4,9,10-tetrahydro-2,9,10a-triaza-cyclopenta[b]fluorene-1,3-dione] | – | ≥ 3160 | ≤ 39.8
7 | CNCCN1C(=O)N2[C@H](c3cccc(O)c3)c3[nH]c4ccc(Cl)cc4c3C[C@@]2(C)C1=O (racemic) [Example 28, (3aSR,10RS)-6-Chloro-10-(3-hydroxy-phenyl)-3a-methyl-2-(2-methylamino-ethyl)-3a,4,9,10-tetrahydro-2,9,10a-triaza-cyclopenta[b]fluorene-1,3-dione] | – | ≥ 3160 | ≤ 39.8
8 | CNCCN1C(=O)N2[C@H](c3cccc(O)c3)c3[nH]c4ccc(OC(F)F)cc4c3C[C@@]2(C)C1=O (racemic) [Example 42, (3aSR,10RS)-6-(1,1-Difluoro-methoxy)-10-(3-hydroxy-phenyl)-3a-methyl-2-(2-methylaminoethyl)-3a,4,9,10-tetrahydro-2,9,10a-triaza-cyclopenta[b]fluorene-1,3-dione] | – | ≥ 3160 | ≤ 39.8
9 | CCOc1ccc2[nH]c3c(c2c1)C[C@@]1(C)C(=O)N(CCN)C(=O)N1[C@@H]3c1cccc(O)c1 (racemic) [Example 45, (3aSR,10RS)-2-(2-Amino-ethyl)-6-ethoxy-10-(3-hydroxy-phenyl)-3a-methyl-3a,4,9,10-tetrahydro-2,9,10a-triaza-cyclopenta[b]fluorene-1,3-dione] | – | ≥ 316 | ≤ 39.8
10 | C[C@@]12Cc3c([nH]c4ccc(Cl)cc34)[C@@H](c3cccc(O)c3)N1C(=O)N(CCN1CCCC1)C2=O (racemic) [Example 17, (3aSR,10RS)-6-Chloro-10-(3-hydroxy-phenyl)-3a-methyl-2-(2-pyrrolidin-1-yl-ethyl)-3a,4,9,10-tetrahydro-2,9,10a-triaza-cyclopenta[b]fluorene-1,3-dione] | – | ≥ 3160 | ≤ 39.8
11 | COc1ccc2[nH]c3c(c2c1)C[C@@]1(C)C(=O)N(CCN(C)C)C(=O)N1[C@@H]3c1cccc(O)c1 (single isomer, unassigned) [Example 7b, (−)-2-(2-Dimethylamino-ethyl)-10-(3-hydroxy-phenyl)-6-methoxy-3a-methyl-3a,4,9,10-tetrahydro-2,9,10a-triaza-cyclopenta[b]fluorene-1,3-dione] | – | ≥ 3160 | ≤ 39.8
12 | COc1ccc2[nH]c3c(c2c1)C[C@@]1(C)C(=O)N(C)C(=O)N1[C@@H]3c1cccc(O)c1 (racemic) [Example 3, (3aSR,10RS)-10-(3-Hydroxy-phenyl)-6-methoxy-2,3a-dimethyl-3a,4,9,10-tetrahydro-2,9,10a-triaza-cyclopenta[b]fluorene-1,3-dione] | – | ≥ 3160 | ≤ 39.8
13 | CCNCCCN1C(=O)N2[C@H](c3cccc(O)c3)c3[nH]c4ccc(OC)cc4c3C[C@@]2(C)C1=O (racemic) [Example 51, (3aSR,10RS)-2-(3-Ethylamino-propyl)-10-(3-hydroxy-phenyl)-6-methoxy-3a-methyl-3a,4,9,10-tetrahydro-2,9,10a-triaza-cyclopenta[b]fluorene-1,3-dione] | – | ≥ 3160 | ≤ 39.8
14 | COCCOc1ccc2[nH]c3c(c2c1)C[C@@]1(C)C(=O)N(CCN(C)C)C(=O)N1[C@@H]3c1cccc(O)c1 (racemic) [Example 6, (3aSR,10RS)-2-(2-Dimethylamino-ethyl)-10-(3-hydroxy-phenyl)-6-(2-methoxy-ethoxy)-3a-methyl-3a,4,9,10-tetrahydro-2,9,10a-triaza-cyclopenta[b]fluorene-1,3-dione] | – | ≥ 3160 | ≤ 39.8
15 | CN1C(=O)N2[C@H](c3cccc(O)c3)c3[nH]c4ccc(Cl)cc4c3C[C@@]2(C)C1=O (racemic) [Example 5, (3aSR,10RS)-6-Chloro-10-(3-hydroxy-phenyl)-2,3a-dimethyl-3a,4,9,10-tetrahydro-2,9,10a-triaza-cyclopenta[b]fluorene-1,3-dione] | – | ≥ 3160 | 39.8 to 251
16 | CN(C)CCN1C(=O)N2[C@H](c3cccc(O)c3)c3[nH]c4ccc(OC(F)F)cc4c3C[C@@]2(C)C1=O (racemic) [Example 43, (3aSR,10RS)-6-(1,1-Difluoro-methoxy)-2-(2-dimethylamino-ethyl)-10-(3-hydroxy-phenyl)-3a-methyl-3a,4,9,10-tetrahydro-2,9,10a-triaza-cyclopenta[b]fluorene-1,3-dione] | – | ≥ 3160 | ≤ 39.8
17 | C[C@@]12Cc3c([nH]c4ccc(Cl)cc34)[C@@H](c3cccc(O)c3)N1C(=O)N(CCn1ccnc1)C2=O (racemic) [Example 31, (3aSR,10RS)-6-Chloro-10-(3-hydroxy-phenyl)-2-(2-imidazol-1-yl-ethyl)-3a-methyl-3a,4,9,10-tetrahydro-2,9,10a-triaza-cyclopenta[b]fluorene-1,3-dione] | – | ≥ 3160 | 39.8 to 251
18 | COc1ccc2[nH]c3c(c2c1)C[C@@]1(C)C(=O)N(CCNC(C)C)C(=O)N1[C@@H]3c1cccc(O)c1 (racemic) [Example 47, (3aSR,10RS)-10-(3-Hydroxy-phenyl)-2-(2-isopropylamino-ethyl)-6-methoxy-3a-methyl-3a,4,9,10-tetrahydro-2,9,10a-triaza-cyclopenta[b]fluorene-1,3-dione] | – | ≥ 3160 | ≤ 39.8
19 | CCNCCN1C(=O)N2[C@H](c3cccc(O)c3)c3[nH]c4ccc(Cl)cc4c3C[C@@]2(C)C1=O (racemic) [Example 37, (3aSR,10RS)-6-Chloro-2-(2-ethylamino-ethyl)-10-(3-hydroxy-phenyl)-3a-methyl-3a,4,9,10-tetrahydro-2,9,10a-triaza-cyclopenta[b]fluorene-1,3-dione] | – | ≥ 316 | ≤ 39.8
